The subject of assay [1] is Cryptococcus neoformans. The experiment in a line: Antimicrobial activity against Cryptococcus neoformans USC1597 isolate after 72 hrs. The assay is classed as functional.
In assay [2] the test system is Cryptococcus neoformans. The experiment in a line: Antimicrobial activity against 9 x 10^6 CFU Cryptococcus neoformans USC1597 isolate intracranially infected in Hartley guinea pig assessed as cerebrospinal fluid […] count per ml at 5 mg/kg, po BID administered 48 hrs postinfection for 13 days. The assay is classed as functional.
Assay [3] has as its system Cryptococcus neoformans. Nature of the assay: Antimicrobial activity against 9 x 10^6 CFU Cryptococcus neoformans USC1597 isolate intracranially infected in Hartley guinea pig assessed as brain […] count per gram at 5 mg/kg, po BID administered 48 hrs postinfection for 13 days. The assay is classed as functional.
Assay [4] relates to Cryptococcus neoformans. Nature of the assay: Antimicrobial activity against 9 x 10^6 CFU Cryptococcus neoformans USC1597 isolate intracranially infected in Hartley guinea pig assessed as kidney […] count per gram at 5 mg/kg, po BID administered 48 hrs postinfection for 13 days. The assay is classed as functional.
For assay [5], the system named is Cryptococcus neoformans. Nature of the assay: Antimicrobial activity against 10^7 CFU Cryptococcus neoformans USC1597 isolate intracranially infected in Hartley guinea pig assessed as decrease in cerebrospinal fluid […] count per ml at 10 mg/kg, po BID administered 48 hrs postinfection for 13 days. The assay is classed as functional.
Assay [6] has as its system Cryptococcus neoformans. Nature of the assay: Antimicrobial activity against 10^7 CFU Cryptococcus neoformans USC1597 isolate intracranially infected in Hartley guinea pig assessed as decrease in cerebrospinal fluid […] count at 5 mg/kg, po BID administered 48 hrs postinfection for 13 days. The assay is classed as functional.
Assay [7] relates to Cryptococcus neoformans. The experiment in a line: Antimicrobial activity against 10^7 CFU Cryptococcus neoformans USC1597 isolate intracranially infected in Hartley guinea pig assessed as decrease in cerebrospinal fluid […] count at 20 mg/kg, po BID administered 48 hrs postinfection for 13 days. The assay is classed as functional.
The subject of assay [8] is Cryptococcus neoformans. Nature of the assay: Antimicrobial activity against 10^7 CFU Cryptococcus neoformans USC1597 isolate intracranially infected in Hartley guinea pig assessed as decrease in brain […] count at 10 mg/kg, po BID administered 48 hrs postinfection for 13 days. The class given is functional.
In assay [9] the test system is Cryptococcus neoformans. Nature of the assay: Antimicrobial activity against 10^7 CFU Cryptococcus neoformans USC1597 isolate intracranially infected in Hartley guinea pig assessed as decrease in brain […] count at 5 mg/kg, po BID administered 48 hrs postinfection for 13 days. The assay is classed as functional.
Assay [10] concerns Cryptococcus neoformans. The experiment in a line: Antimicrobial activity against 10^7 CFU Cryptococcus neoformans USC1597 isolate intracranially infected in Hartley guinea pig assessed as decrease in brain […] count at 20 mg/kg, po BID administered 48 hrs postinfection for 13 days. The class given is functional.
Assay [11] deals with Cryptococcus neoformans. The experiment in a line: Antimicrobial activity against 9 x 10^6 CFU Cryptococcus neoformans USC1597 isolate intracranially infected in Hartley guinea pig assessed as cerebrospinal fluid […] count per ml at 10 mg/kg, po BID administered 48 hrs postinfection for 13 days. The assay is classed as functional.
Assay [12] deals with Cryptococcus neoformans. Nature of the assay: Antimicrobial activity against 9 x 10^6 CFU Cryptococcus neoformans USC1597 isolate intracranially infected in Hartley guinea pig assessed as brain […] count per gram at 10 mg/kg, po BID administered 48 hrs postinfection for 13 days. The assay is classed as functional.
Assay [13] deals with Cryptococcus neoformans. The experiment in a line: Antimicrobial activity against 9 x 10^6 CFU Cryptococcus neoformans USC1597 isolate intracranially infected in Hartley guinea pig assessed as kidney […] count per gram at 10 mg/kg, po BID administered 48 hrs postinfection for 13 days. The assay is classed as functional.
Assay [14] deals with Cryptococcus neoformans. Nature of the assay: Antimicrobial activity against 10^7 CFU Cryptococcus neoformans USC1597 isolate intracranially infected in Hartley guinea pig assessed as decrease in kidney […] count at 10 mg/kg, po BID administered 48 hrs postinfection for 13 days. The class given is functional, organism-based. More on the design: dose 10 mg/kg. To be noted: […].

We go through 3 compounds from ChEMBL document CHEMBL1155770, “New guinea pig model of Cryptococcal meningitis” (2007).

The term MIC denotes the smallest concentration in the dilution series that meets the test's criterion for growth inhibition. High values mean weaker potency, low ones greater potency.

Values after ≈ are worked out from the molar mass of the structure shown. Active and inactive are the calls of the source.

Compound `C[C@@H]1[C@H](O)[C@@H](C)/C=C/C=C/C=C/C=C/C=C/C=C/C=C/[C@H](O[C@@H]2O[C@H](C)[C@@H](O)[C@H](N)[C@@H]2O)C[C@@H]2O[C@](O)(C[C@@H](O)C[C@@H](O)[C@H](O)CC[C@@H](O)C[C@@H](O)CC(=O)O[C@H]1C)C[C@H](O)[C@H]2C(=O)O` [AMPHOTERICIN B] had an MIC with Cryptococcus neoformans [1] of 0.25 µg/mL (≈ 0.271 µM).

For `C[C@@H](c1ncncc1F)[C@](O)(Cn1cncn1)c1ccc(F)cc1F` [VORICONAZOLE], the log10cfu in the assay on Cryptococcus neoformans [2] came to 4.11; with Cryptococcus neoformans [3], 5.99; in the assay on Cryptococcus neoformans [4] it was 3.01; with Cryptococcus neoformans [5] it was 1.6; in the assay with Cryptococcus neoformans [6] it was 0.7; in the assay on Cryptococcus neoformans [7], 1. Further, the figures for the log10cfu with Cryptococcus neoformans [8], with Cryptococcus neoformans [9] and in the assay with Cryptococcus neoformans [10] were 1.5, 1 and 1.5, respectively. Also, in the assay on Cryptococcus neoformans [1], the lowest concentration to inhibit growth (MIC) was 0.006 µg/mL (≈ 0.0172 µM).

`OC(Cn1cncn1)(Cn1cncn1)c1ccc(F)cc1F` [FLUCONAZOLE]: the log10cfu is given as 3.18 in the assay with Cryptococcus neoformans [11]; 5.25 in the assay with Cryptococcus neoformans [12]; 2.43 in the assay with Cryptococcus neoformans [13]; 1 in the assay on Cryptococcus neoformans [5]; 2 in the assay with Cryptococcus neoformans [8]. Besides, the lowest concentration to inhibit growth against Cryptococcus neoformans [1] (MIC) was 1 µg/mL (≈ 3.27 µM). The outcome in the assay on Cryptococcus neoformans [14] was Active.
